The values that follow are results of earlier work, collected in patent US20060286164A1 (priority 2004, published 2006).

One may read the LD50 as the dose at which mortality reaches 50%.

The subject of data set [1] is rat.
Assay in data set [2]: not given
This is another data set of the same source.

Data set [3] has as its system Guinea Pig. The note with it: in vivo, po.
For data set [4], the system named is mouse. The note with it: in vivo, po.
For data set [5] the following is noted: set by WHO from metabolic and toxicological data.

Entries after “also recorded” stand apart in the source; their conditions may differ. Read-outs that look alike come from different tables or passages of the source.

Turning to `CCCCCCCC/C=C\CCCCCCCC(=O)O` [Oleic acid, (Z)-9-Octadecenoic acid], the LD50 in data set [1] (IV) is given as 2.4 mg/kg. For the molecule `CCOCCOCCO` [Transcutol, Diethylene glycol monoethyl ether], the solubility in water entry is on record as “soluble”. Moreover, the solubility entry in data set [2] (ethanol, hexylene glycol and propylene glycol) is reported as “soluble”. The solubility result in data set [2] (vegetable oil) is given as “partially soluble”. Also, the LD50 in data set [1] (in vivo, po) is on record as 7.5 mg/kg. Turning to `CCO` [Ethanol, Ethyl alcohol], the miscibility entry in data set [2] (chloroform, ether, glycerin and water) is recorded as “miscible”. The LD50 in data set [3] is 5560 mg/kg; in data set [4], 7500 mg/kg.

For `CC(O)CO` (stereo not shown) [propylene glycol, Propylene glycol], in data set [5], the acceptable daily intake result was “up to 25 mg/kg body weight”. Vitamin E: the solubility in water result was “practically insoluble”. The solubility entry in data set [2] (acetone, ethanol, ether and vegetable oil) is given as “freely soluble”.

Turning to `CC(C)Cc1ccc([C@H](C)C(=O)O)cc1` [(S)-(+)-Ibuprofen], the solubility in water result was “not soluble”. Consider `CC(C)Cc1ccc(C(C)C(=O)O)cc1` (racemic) [Ibuprofen, 2-(4-Isobutylphenyl)Propionic acid], for which the solubility in water entry is given as “practically insoluble; also recorded: not soluble”.
